# Test results as given in PMC6508583 (Journal of the American Chemical Society, 2019).
# Read-outs that look alike come from different tables or passages of the source.
# How the values were obtained:
# [1] = system: wild-type bacterial ribosome; test: Cell-free translation assay, wild-type bacterial ribosome; assay type: biochemical; details: in vitro translation inhibition
# [2] = system: Mit13 hybrid ribosome (decoding A site of the human mitochondrial ribosome); assay type: biochemical; details: for Selectivity Mit 13: Mit13 over wt bacterial ribosome; for IC50 Mit13: in vitro translation inhibition, Mit13 hybrid ribosome
# [3] = system: A1555G mutant mitochondrial hybrid ribosome; assay type: biochemical, human; details: for Selectivity A1555G: A1555G over wt bacterial ribosome; for IC50 A1555G: in vitro translation inhibition, A1555G mutant mitochondrial hybrid ribosome
# [4] = system: Cyt14 hybrid ribosome (decoding A site of the human cytoplasmic ribosome); assay type: biochemical; details: for Selectivity Cyt14: Cyt14 over wt bacterial ribosome; for IC50 Cyt 14: in vitro translation inhibition, Cyt14 hybrid ribosome
# MRSA = test: Antibacterial activity against reference strains: MRSA; assay type: cell-based; details: for MIC: Staphylococcus aureus, MRSA; for Antibacterial activity (MIC) MRSA AG038: strain AG038; for Antibacterial activity (MIC) MRSA AG042: strain AG042 carries the AAC(6)’, ANT(4’,4’’) and APH(3’) genes
# E. cloacae = test: Antibacterial activity against reference strains: E. cloacae; assay type: cell-based; details: for MIC: Enterobacter cloacae, read-out: Antibacterial activity (MIC) E. cloacae AG290; for Antibacterial activity (MIC) E. cloacae AG290: strain AG290
# [5] = system: E. coli carrying specific resistance determinants; test: Activity against wild-type and engineered E. coli carrying specific AMEs or RMTs; assay type: cell-based; details: for MIC: Escherichia coli; for Activity (MIC) E. coli AG006: strain AG006, WT; for Activity (MIC) E. coli AG007: strain AG007, AAC(3); for Activity (MIC) E. coli AG008: strain AG008, ANT(2’’); for Activity (MIC) E. coli AG009: strain AG009, AAC(6’); for Activity (MIC) E. coli AG036: strain AG036, ANT(4′,4′′); for Activity (MIC) E. coli AG103: strain AG103, armA; for Activity (MIC) E. coli AG105: strain AG105, AAC(2′); for Activity (MIC) E. coli AG166: strain AG166, APH(3′)
# E coli = test: Neutropenic mouse thigh infection model; assay type: in vivo; details: dose 3 mg.kg^−1
# E. coli = test: Antibacterial activity against reference strains: E. coli; details: for MIC: Escherichia coli; for Antibacterial activity (MIC) E. coli AG001: strain AG001; for Antibacterial activity (MIC) E. coli AG003: strain AG003 carries the AAC(3) gene
# K. pneumoniae = test: Antibacterial activity against reference strains: K. pneumoniae; assay type: cell-based; details: strain AG215
# A. baumannii = test: Antibacterial activity against reference strains: A. baumannii; assay type: cell-based; details: strain AG225
# [6] = system: NIH 3T3 mouse embryonic fibroblast cells; assay type: cell-based
# P. aeruginosa = test: Antibacterial activity against reference strains: P. aeruginosa; details: for Antibacterial activity (MIC) P. aeruginosa AG031: strain AG031 carries the APH(3’) gene; for Antibacterial activity (MIC) P. aeruginosa AG220: strain AG220 carries the APH(3’) gene
# [7] = system: E coli 70S ribosome (helix 44, A1408); test: Quantitative dimethyl sulfate footprinting of the 70S ribosome; assay type: binding; details: read-out: apparent Kd; DMS footprinting, % protection of N1 of A1408, E. coli 70S ribosome
# Mycobacterium abscessus = test: microbe, parasite or virus in culture; assay type: cell-based; details: Mycobacteroides abscessus
# [8] = system: Mycobacterium tuberculosis clinical isolates; test: microbe, parasite or virus in culture; assay type: cell-based; details: Mycobacterium tuberculosis, read-out: MIC M. tuberculosis clinical isolates
# [9] = read-out: Antibacterial activity (MIC) MRSA AG038
# [10] = read-out: Activity (MIC) E. coli AG006
# [11] = read-out: Activity (MIC) E. coli AG007
# [12] = read-out: Activity (MIC) E. coli AG008
# [13] = read-out: Activity (MIC) E. coli AG009
# [14] = read-out: Activity (MIC) E. coli AG036
# [15] = read-out: Activity (MIC) E. coli AG103
# [16] = read-out: Activity (MIC) E. coli AG105
# [17] = read-out: Activity (MIC) E. coli AG166
# [18] = read-out: Antibacterial activity (MIC) E. coli AG001
# [19] = read-out: Antibacterial activity (MIC) E. coli AG003
SMILES,IC50 wt [1],Selectivity Mit 13 [2],IC50 Mit13 [2],Selectivity A1555G [3],IC50 A1555G [3],Selectivity Cyt14 [4],IC50 Cyt 14 [4],MIC (MRSA; [9]),MIC (E. cloacae),"MIC [5, 10]","MIC [5, 11]","MIC [5, 12]",Antibacterial activity (MIC) MRSA AG038 (MRSA),Antibacterial activity (MIC) MRSA AG042 (MRSA),Antibacterial activity (MIC) K. pneumoniae AG215 (K. pneumoniae),Antibacterial activity (MIC) E. cloacae AG290 (E. cloacae),Antibacterial activity (MIC) A. baumannii AG225 (A. baumannii),Antibacterial activity (MIC) E. coli AG001 (E. coli),Antibacterial activity (MIC) E. coli AG003 (E. coli),Antibacterial activity (MIC) P. aeruginosa AG031 (P. aeruginosa),also measured
"CN[C@@H]1[C@@H](O)[C@@H](O[C@@H]2[C@@H](O)[C@H](O[C@H]3OC(CNCCO)=CC[C@H]3N)[C@@H](N)C[C@H]2NC(=O)[C@@H](O)CCN)OC[C@]1(C)O [Plazomicin, reference compound]",0.06 µg/mL,833,50 µg/mL,47,2.8 µg/mL,6983,419 µg/mL,2 µg/mL,0.5 µg/mL,0.5 to 1 µg/mL,2 µg/mL,0.5 to 1 µg/mL,–,–,–,–,–,–,–,–,"MIC [5, 13]: 2 µg/mL; MIC [5, 14]: 1 µg/mL; MIC [5, 15]: > 128 µg/mL; MIC [5, 16]: 1 to 2 µg/mL; MIC [5, 17]: 1 µg/mL; log reduction in colony-forming units (CFUs) compared to vehicle (E coli): similar; MIC (E. coli; [18]): 2 µg/mL; MIC (E. coli; [19]): 2 to 4 µg/mL"
"CCSC1C(CO)OC(OC2C(N)CC(N)C(O)C2OC2OC(CO)C(OC3OC(CN)C(O)C(O)C3N)C2O)C(N)C1O (stereo not shown) [Compound 4, 4’-deoxy-4’-ethylthioparomomycin]",0.04 µg/mL,2775,111 µg/mL,1150,46 µg/mL,1500,60 µg/mL,–,–,–,–,–,4 µg/mL,2 to 4 µg/mL,2 µg/mL,2 to 4 µg/mL,4 µg/mL,8 µg/mL,8 µg/mL,32 µg/mL,Activity (MIC) E. coli AG006 [5]: 1 to 2 µg/mL; Activity (MIC) E. coli AG007 [5]: 4 µg/mL; Activity (MIC) E. coli AG008 [5]: 1 µg/mL; Activity (MIC) E. coli AG009 [5]: 4 µg/mL; Activity (MIC) E. coli AG036 [5]: 1 to 2 µg/mL; Activity (MIC) E. coli AG103 [5]: 8 µg/mL; Activity (MIC) E. coli AG105 [5]: 2 to 4 µg/mL; Activity (MIC) E. coli AG166 [5]: 4 µg/mL; loss of cell viability [6]: only minimal loss of cell viability
"NC[C@@H]1O[C@H](O[C@H]2[C@@H](O)[C@H](O[C@@H]3[C@@H](O)[C@H](N)C[C@H](N)[C@H]3O[C@H]3O[C@H](CO)[C@@H](O)[C@H](O)[C@H]3N)O[C@@H]2CO)[C@H](N)[C@@H](O)[C@@H]1O [Compound 1, paromomycin, reference compound]",0.02 µg/mL,2500,50 µg/mL,270,5.4 µg/mL,470,9.4 µg/mL,4 µg/mL,2 µg/mL,1 to 2 µg/mL,4 µg/mL,2 to 4 µg/mL,–,–,–,–,–,–,–,–,"MIC (MRSA; read-out: Antibacterial activity (MIC) MRSA AG042): > 256 µg/mL; Kd [7]: 590 ± 50 nM; MIC [5, 13]: 4 µg/mL; MIC [5, 14]: 32 to 64 µg/mL; MIC [5, 15]: 4 µg/mL; MIC [5, 16]: 2 µg/mL; MIC [5, 17]: > 128 µg/mL; MIC (Mycobacterium abscessus; read-out: MIC M. abscessus): 64 µg/mL; MIC (Mycobacterium abscessus; read-out: MIC M. abscessus, AAC(2’) gene deleted): 16 µg/mL; MIC [8]: 2 to 4 µg/mL; MIC (E. coli; [18]): 2 to 4 µg/mL; MIC (E. coli; [19]): 8 to 16 µg/mL"
CCOC1C(CO)OC(OC2C(N)CC(N)C(O)C2OC2OC(CO)C(OC3OC(CN)C(O)C(O)C3N)C2O)C(N)C1O (stereo not shown) [Compound 3],0.08 µg/mL,1075,86 µg/mL,1188,95 µg/mL,1100,88 µg/mL,–,–,–,–,–,8 to 16 µg/mL,8 to 16 µg/mL,8 µg/mL,8 µg/mL,16 to 32 µg/mL,16 µg/mL,32 µg/mL,>64 µg/mL,Kd [7]: 1030 ± 200 nM; Activity (MIC) E. coli AG006 [5]: 8 to 16 µg/mL; Activity (MIC) E. coli AG007 [5]: 16 to 32 µg/mL; Activity (MIC) E. coli AG008 [5]: 8 µg/mL; Activity (MIC) E. coli AG009 [5]: 16 µg/mL; Activity (MIC) E. coli AG036 [5]: 8 to 16 µg/mL; Activity (MIC) E. coli AG103 [5]: ≥64 µg/mL; Activity (MIC) E. coli AG105 [5]: 8 to 16 µg/mL; Activity (MIC) E. coli AG166 [5]: 64 µg/mL; Antibacterial activity (MIC) P. aeruginosa AG220 (P. aeruginosa): >64 µg/mL
NCC1OC(OC2C(CO)OC(OC3C(O)C(N)CC(N)C3OC3OC(CO)C(CC(O)CO)C(O)C3N)C2O)C(N)C(O)C1O (stereo not shown) [Compound 37],0.10 µg/mL,320,32 µg/mL,330,33 µg/mL,590,59 µg/mL,–,–,–,–,–,4 µg/mL,8 µg/mL,8 µg/mL,4 to 8 µg/mL,8 µg/mL,16 µg/mL,8 µg/mL,16 to 32 µg/mL,Antibacterial activity (MIC) P. aeruginosa AG220 (P. aeruginosa): 16 µg/mL
CCC1C(CO)OC(OC2C(N)CC(N)C(O)C2OC2OC(CO)C(OC3OC(CN)C(O)C(O)C3N)C2O)C(N)C1O (stereo not shown) [Compound 35],0.06 µg/mL,3033,182 µg/mL,2150,129 µg/mL,1867,112 µg/mL,–,–,–,–,–,8 µg/mL,4 to 8 µg/mL,4 µg/mL,4 to 8 µg/mL,16 to 32 µg/mL,8 µg/mL,8 µg/mL,64 to 128 µg/mL,–
